The values that follow come from article PMC6414200, “Stepwise activation mechanism of the scramblase nhTMEM16 revealed by cryo-EM” (eLife, 2019).

For the assay, the target named is T1, nhTMEM16 (Fusarium vanettenii, UniProt C7Z7K1).
T1 construct: gene NECHADRAFT_66456; full open reading frame, N-terminal SBP-Myc-3C tag kept for scrambling assay; expressed in S. cerevisiae FGY217, purified in DDM, reconstituted into liposomes; homodimer
T1 sequence (C7Z7K1 1-735): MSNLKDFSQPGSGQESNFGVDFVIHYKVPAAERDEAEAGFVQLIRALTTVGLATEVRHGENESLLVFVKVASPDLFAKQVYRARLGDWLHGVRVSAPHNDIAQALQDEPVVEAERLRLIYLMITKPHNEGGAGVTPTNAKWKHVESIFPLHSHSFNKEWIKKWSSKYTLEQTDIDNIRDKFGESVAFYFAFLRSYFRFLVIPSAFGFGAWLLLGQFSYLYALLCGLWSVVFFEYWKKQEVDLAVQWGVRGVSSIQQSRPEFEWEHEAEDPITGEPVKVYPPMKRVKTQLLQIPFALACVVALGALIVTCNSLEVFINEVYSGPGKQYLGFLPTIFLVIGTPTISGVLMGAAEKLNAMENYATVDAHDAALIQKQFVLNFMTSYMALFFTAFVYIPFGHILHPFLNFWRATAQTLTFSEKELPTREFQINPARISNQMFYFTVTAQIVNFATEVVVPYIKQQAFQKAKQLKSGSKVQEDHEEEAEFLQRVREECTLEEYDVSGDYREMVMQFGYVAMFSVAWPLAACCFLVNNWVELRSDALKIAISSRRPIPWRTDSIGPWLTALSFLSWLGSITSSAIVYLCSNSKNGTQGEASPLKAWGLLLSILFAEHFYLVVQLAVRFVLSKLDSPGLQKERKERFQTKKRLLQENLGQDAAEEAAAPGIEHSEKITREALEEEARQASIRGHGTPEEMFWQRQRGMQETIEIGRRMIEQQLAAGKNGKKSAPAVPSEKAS
Briefly: proteoliposome scrambling assay, dithionite quenching of NBD fluorescence. Type of assay: biochemical. The settings on record: Ca2+-stimulated with basal activity without Ca2+; E. coli polar lipids/egg PC 3:1, pH 7.5, 300 mM KCl; labelled compound; lipid transport (flip-flop).

For `CCCCCCCC/C=C\CCCCCCCC(=O)OC[C@H](COP(=O)(O)OCCN)OC(=O)CCCCCNc1ccc([N+](=O)[O-])c2nonc12` [18:1-06:0 NBD-PE], the “proteoliposome scrambling assay, dithionite quenching of NBD fluorescence” value is listed as “Traces depict sections of the fluorescence decrease of tail-labeled NBD-PE lipids after addition of dithionite”.
